How the values were obtained:
[1] = tested on: Corn Earworm (Helicoverpa zea); test: Insecticidal diet-surface test for corn earworm; format: in vivo; conditions: second-instar corn earworm, 50 ug/cm2 on diet surface, 5 days after treatment, dead insects of 8
Experimental: (§1) The compounds identified in Table 1 were prepared using the procedures illustrated in the foregoing examples, and the compounds were tested against beet armyworm and corn earworm as follows:
(§2) Insecticidal Test for Corn Earworm (Helicoverpa zea) and Beet Armyworm (Spodoptera exigua).
(§3) To prepare test solution, the test compound was formulated at 2000 ppm solution as 4 mg/2 mL of 9 acetone:1 tap water. 50 μL of the 2000 ppm (equivalent to 50 ug/cm^2 dose on diet surface area) test solution was pipetted upon the surface of 1 mL of lepidopteran diet (Southland Multi-Species Lepidopteran Diet) contained in each of eight wells per insect species (one well=1 replication). A second-instar corn earworm and beet armyworm was placed upon the treated diet in each well once the solvent had air-dried. Trays containing the treated diet and larvae were covered and then held in a growth chamber at 25° C., 50-55% RH, and 16 hr light:8 hr dark for 5 days. Observation were conducted 5 days after treatment and infestation. The number of dead insects of 8 per species per treatment was then determined and the results are given in Table 1 as percent control at a dose of […].
(§4) Keys to the table: Mass spectral data were obtained using liquid chromatography mass spectroscopy (LC-MS). The masses are detected using electrospray ionization (ESI) and reported as Mol Ion (M+H, M−H); AVG LAPHEG 50 refers to activity against beet army worm (Spodoptera exigua) as defined above; AVG HELIZE 50 refers to activity against corn ear worm (Helicoverpa zea) as described above.

[2] = tested on: Beet Armyworm (Spodoptera exigua); test: Insecticidal diet-surface test for beet armyworm; format: in vivo; conditions: second-instar beet armyworm, 50 ug/cm2 on diet surface, 5 days after treatment, dead insects of 8
Experimental: as §1, §2, §3, §4

Structure (SMILES) | HELIZE 50 (ug/cm2), percent control [1] [%] | LAPHEG 50 (ug/cm2), percent control [2] [%]
Clc1cccc(/C=N/Nc2nc(Cl)cc(Nc3cccc(Br)c3)n2)c1 [Compound 35] | 25 | 0
COc1ccc(/C=N/Nc2nc(Cl)cc(Nc3ccc(F)c(C(F)(F)F)c3)n2)cc1 [Compound 23] | 38 | 50
Fc1ccc(Nc2cc(Cl)nc(N/N=C/c3ccc(OCC(F)(F)F)nc3)n2)cc1C(F)(F)F [Compound 70] | 100 | 100
Fc1ccc(Nc2cc(C(F)(F)F)nc(N/N=C/c3ccc(OC(F)(F)F)cc3)n2)cc1C(F)(F)F [Compound 56] | 100 | 100
Fc1ccc(Nc2cc(N/N=C/c3ccc(OC(F)(F)F)cc3)nc(NCc3ccc(Cl)nc3)n2)cc1C(F)(F)F [Compound 3, N-[2-(6-Chloropyridin-3-ylmethyl)]-N-[4-(4-fluoro-3-trifluoromethylphenyl)]-6-{N′-[1-(4-trifluoromethoxyphenyl)-methylidene]-hydrazino}pyrimidine-2,4-diamine] | 100 | 100
Fc1ccc(/C=N/Nc2nc(Cl)cc(Nc3cccc(Br)c3)n2)cc1C(F)(F)F [Compound 52] | 75 | 38
FC(F)C(F)(F)Oc1ccc(/C=N/Nc2cc(Nc3cc(Cl)cc(C(F)(F)F)c3)nc(Cl)n2)cc1 [Compound 84] | 100 | 100
OC(c1cccc(Nc2cc(Cl)nc(N/N=C/c3ccc(OC(F)(F)C(F)F)cc3)n2)c1)C(F)(F)F (centres unmarked) [Compound 50] | 0 | 63
Fc1ccc(Nc2cc(Cl)nc(N/N=C/c3ccc(Cl)cc3)n2)cc1C(F)(F)F [Compound 11] | 100 | 100
FC(F)(F)Oc1ccc(/C=N/Nc2nc(Cl)cc(Nc3ccc(Cl)cc3)n2)cc1 [Compound 26] | 100 | 100
Fc1ccc(Nc2cc(NN=Cc3ccc(OC(F)(F)F)cc3)ncn2)cc1C(F)(F)F [Compound 85] | 100 | 100
FC(F)(F)Oc1ccc(/C=N/Nc2ccnc(Nc3ccc(OC(F)(F)F)cc3)n2)cc1 [Compound 73] | 100 | 100
Clc1ccc(Nc2cc(Cl)nc(N/N=C/c3ccc(N4CCCCC4)cc3)n2)cc1 [Compound 27] | 100 | 38
Fc1ccc(Nc2cc(Cl)nc(N/N=C/c3ccc(C(F)(F)F)nc3)n2)cc1C(F)(F)F [Compound 68] | 100 | 100
FC(F)(F)Oc1ccc(/C=N/Nc2nc(Cl)cc(Nc3cccc(Cl)c3)n2)cc1 [Compound 39] | 100 | 100
CCNCCNc1cc(Nc2ccc(F)c(C(F)(F)F)c2)nc(N/N=C/c2ccc(OC(F)(F)F)cc2)n1 [Compound 65] | 100 | 100
FC(F)(F)Oc1ccc(/C=N/Nc2cc(Nc3cc(Cl)cc(C(F)(F)F)c3)nc(Cl)n2)cc1 [Compound 83] | 100 | 100
Fc1cnc(N/N=C/c2ccc(OC(F)(F)C(F)F)cc2)nc1Nc1ccc(OC(F)(F)F)cc1 [Compound 14] | 88 | 0
OC(c1cccc(Nc2cc(Cl)nc(N/N=C/c3ccc(OC(F)(F)F)cc3)n2)c1)C(F)(F)F (centres unmarked) [Compound 49] | 50 | 88
Fc1ccc(Nc2cc(N3CCOCC3)nc(N/N=C/c3ccc(OC(F)(F)F)cc3)n2)cc1C(F)(F)F [Compound 62] | 100 | 100
Fc1ccc(Nc2cc(OCC(F)(F)F)nc(N/N=C/c3ccc(OC(F)(F)F)cc3)n2)cc1C(F)(F)F [Compound 63] | 100 | 100
FC(F)(F)c1cccc(Nc2cc(C(F)(F)F)nc(N/N=C/c3cccc(Br)c3)n2)c1 [Compound 55] | 88 | 75
Fc1ccc(Nc2cc(C(F)(F)F)nc(N/N=C/c3ccc(C(F)(F)F)nc3)n2)cc1C(F)(F)F [Compound 72] | 100 | 100

Structure (SMILES) | HELIZE 50 (ug/cm2), percent control [1] [%] | LAPHEG 50 (ug/cm2), percent control [2] [%]
FC(F)(F)Oc1ccc(Nc2nccc(N/N=C/c3ccc(C(F)(F)F)cc3)n2)cc1 [Compound 74] | 100 | 100
Fc1cnc(N/N=C/c2cccc(OC(F)(F)F)c2)nc1Nc1ccc(OC(F)(F)F)cc1 [Compound 15] | 75 | 0
Fc1ccc(Nc2ccnc(N/N=C/c3ccc(OC(F)(F)F)cc3)n2)cc1C(F)(F)F [Compound 80] | 100 | 100
Fc1ccc(Nc2nc(N/N=C/c3ccc(OC(F)(F)C(F)F)cc3)nc(Cl)c2Cl)cc1C(F)(F)F [Compound 42] | 38 | 38
Clc1cccc(/C=N/Nc2nc(Cl)cc(Nc3cccc(Cl)c3)n2)c1 [Compound 38] | 0 | 25
Fc1ccc(/C=N/Nc2nc(Cl)cc(Nc3cccc(Cl)c3)n2)cc1C(F)(F)F [Compound 51] | 50 | 75
FC(F)(F)Oc1ccc(/C=N/Nc2nc(Nc3cccc(C(F)(F)F)c3)cc(C(F)(F)F)n2)cc1 [Compound 54] | 100 | 100
Clc1cccc(Nc2cc(Cl)nc(N/N=C/c3ccc(N4CCCC4)cc3)n2)c1 [Compound 44] | 50 | 0
FC(F)(F)c1ccc(/C=N/Nc2nc(Cl)cc(Nc3ccc(Cl)cc3)n2)cc1 [Compound 46] | 100 | 100
Clc1cc(Nc2cccc(Br)c2)nc(N/N=C/c2ccccc2Cl)n1 [Compound 34] | 13 | 25
FC(F)C(F)(F)Oc1cccc(Nc2cc(Cl)nc(N/N=C/c3ccc(OC(F)(F)F)cc3)n2)c1 [Compound 47] | 100 | 100
Fc1cc(Nc2ccc(OC(F)(F)C(F)F)cc2)nc(NN=Cc2ccc(OC(F)(F)F)cc2)n1 [Compound 19] | 13 | 50
N#Cc1ccc(/C=N/Nc2nc(Cl)cc(Nc3cccc(Cl)c3)n2)cc1 [Compound 33] | 13 | 13
CN(/N=C/c1ccc(OC(F)(F)F)cc1)c1nc(Nc2ccc(OC(F)(F)F)cc2)cc(C(F)(F)F)n1 [Compound 61] | 88 | 88
Fc1ccc(Nc2ccnc(N/N=C/c3ccc(OC(F)(F)C(F)F)cc3)n2)cc1C(F)(F)F [Compound 4] | 100 | 100
Fc1ccc(Nc2ncc(F)c(NN=Cc3ccc(OC(F)(F)F)cc3)n2)cc1C(F)(F)F [Compound 78] | 100 | 100
CN(c1ccc(OC(F)(F)F)cc1)c1cc(C(F)(F)F)nc(N/N=C/c2ccc(OC(F)(F)F)cc2)n1 [Compound 2, Methyl-(4-trifluoromethoxyphenyl)-(2-{N′-[1-(4-trifluoromethoxy-phenyl)-methylidene]-hydrazino}-6-trifluoromethylpyrimidin-4-yl)amine] | 50 | 0
Fc1ccc(Nc2cc(Cl)nc(N/N=C/c3ccc(Br)nc3)n2)cc1C(F)(F)F [Compound 66] | 75 | 100
FC(F)(F)COc1ccc(/C=N/Nc2nc(Cl)cc(Nc3cccc(Cl)c3)n2)cn1 [Compound 71] | 100 | 100
Fc1cc(Nc2ccc(F)c(C(F)(F)F)c2)nc(NN=Cc2ccc(OC(F)(F)C(F)F)cc2)n1 [Compound 18] | 100 | 100
COCCNc1cc(Nc2ccc(F)c(C(F)(F)F)c2)nc(N/N=C/c2ccc(OC(F)(F)F)cc2)n1 [Compound 64] | 100 | 100
FC(F)(F)Oc1ccc(/C=N/Nc2nc(Cl)cc(Nc3cccc(Br)c3)n2)cc1 [Compound 37] | 100 | 100
Clc1ccc(/C=N/Nc2nc(Cl)cc(Nc3ccc(Cl)cc3)n2)cc1 [Compound 25] | 100 | 75

Source: patent publication US8598182B2, “Insecticidal pyrimidinyl aryl hyrdrazones” (Dow AgroSciences, LLC., priority 2007, dated 2013)
